Here are results for one compound from patent US12521435B2, “Photodynamic therapy composition” (CASE WESTERN RESERVE UNIVERSITY, priority 2020, dated 2026).

The test system of assay [1] is PSMA-positive PC3pip cells. Nature of the assay: In vitro targeting and intracellular Pc158 release (confocal microscopy). The settings on record: E64 added prior to coincubation with AuNPs. The assay is classed as cell-based. The method, then:
Retrovirally transformed PSMA-positive PC3pip cells and transfection control PSMA-negative PC3flu cells were incubated for specific uptake and intracellular release studies. Both PC3pip and PC3flu cells were cultured in RPMI1640 medium (Invitrogen Life Technology) with 2 mmol/L L-glutamine, 10% FBS at 37° C., and 5% CO2. PC3pip and PC3flu cells were seeded in μ-Slide 8-Well Chamber Slide (ibidi) at 2000 cells/well. When the cells grew to 70% confluence, AuNPs-Pc158 conjugations were added at a Pc158 concentration of 1 μmol/L and coincubated for 1 h, 6 h, and 24 h. Then the cells were washed with PBS and stained with DAPI, LysoOrange, and MitoGreen (all from abcam) for 30 min at 37° C. and 5% CO2, after which they were washed again with PBS and replete medium added. The release of Pc158 and localization of nuclei, lysosomes, and mitochondria was observed under a Leica HyVolution SP8 confocal microscope (Leica Microsystem Inc.).

Assay [2] concerns PC3pip tumors. Nature of the assay: In vivo tumor targeting and intratumor Pc158 release (Maestro fluorescence imaging). Set-up: species or system athymic nude mice. The settings on record: E64 intratumorally injected before AuNPs-Pc158 administration. The method, then:
All animal procedures were performed according to Institutional Animal Care and Use Committee (JACUA)-approved protocols (2015-0033). Four- to five-week-old male athymic nude mice were subcutaneously implanted with PC3pip or PC3flu cells (100 μL, cells suspended in PBS/matrigel at 1×10^7 cells/mL) on the right and left flanks, respectively. When the tumors grew to a sufficient size, AuNPs-Pc158 conjugations were intravenously injected via the tail vein with a Pc158 dose of 0.1 mg/kg. The mice were preimaged before, and at 0.5 h, 1 h, 4 h, 8 h, 24 h, 48 h, 72 h, 96 h, and 120 h after NPs injection using the Maestro In vivo Imaging System (PerkinElmer) to monitor the delivery and release of Pc158. Multispectral images were unmixed into their component spectra (Pc158 autofluorescence and background). Component images were used to quantitatively determine the average Pc158 fluorescence intensity of the PC3pip and PC3flu tumors. Tumor tissues at 24 h postinjection were also collected, cut, and imaged to see the Pc158 distribution (details in the histology analysis section).

Another assay concerns PC3pip cells. In words: In vitro PDT, CCK8 assay. The settings on record: E64 added to block the cleavage. The class given is cell-based. The method, then: In vitro PDT was evaluated by CCK8 assay. PC3pip and PC3flu cells were seeded in 96-well plates at 1×10^4 cells/well. […] The 96-well plate was irradiated (Appolo Horizon projector, Acco Brands) with radiant exposure at 1 J/cm^2, after which the cells were incubated overnight. After incubation, CCK8 agent (DojinDo Laboratories) was added to each well (10 μL/well) and incubated for 3 h at 37° C., and absorbance at 450 nm was measured for each well.
(In general: Tetrazolium assays rely on reduction of a dye to a coloured formazan, in cell work by metabolically active cells.)

Assay [3] concerns PC3pip tumors. In words: Multiple sequential PDT of tumors around 500 mm^3. The settings on record: E64 intratumorally injected after bleaching; following 48 h (Day 2 and Day 3). The assay is classed as in vivo, athymic nude mice. The method, then: Tumor size and mouse body weight was monitored every other day for a 30 day period. […] PDT was performed at 24 h, 2 days, and 3 days post-injection. Fluorescence before and after each PDT was monitored with Maestro, and intensity was quantified. One group of mice that received AuNPs-Pc158 were intratumorally injected with cathepsin inhibitor E64 after the first PDT exposure. After PDT, tumor size and mice body weight were monitored over 24 days.

The structures appear in SMILES notation.

Turning to `CC(C)C[C@H](NC(=O)[C@H]1O[C@@H]1C(=O)O)C(=O)NCCCCN=C(N)N` [E64], the “process of free Pc158 generation from AuNPs-Pc158 in cells” value in assay [1] is “could be blocked”. Also, the “Pc158 fluorescence in PC3pip tumors” value with PC3pip tumors [2] is “no Pc158 fluorescence was measurable”. Moreover, the “release of free Pc158 and PDT with AuNPs-Pc158” value with PC3pip cells is on record as “significantly hindered”. Besides, the “Pc158 fluorescence in the tumor after first PDT” value in the assay on PC3pip tumors [3] was “fluorescence inhibition”.
